Columns and labels:
Experiment in all cases: fitness (endpoint OD595 vs no drug) (fraction); higher = more growth
[1] = system: S. aureus DSM 20231
Summary of the method: (§1)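 Cultures at OD595 0.01 were dispensed into 384-well plates in TSB, LB Lennox or CY and incubated at 37 °C. Every 30 min for 14 h, OD595 was read and corrected by the first reading. Fitness is the optical density at entry into stationary phase relative to the robust mean of no-drug control wells, capped at 1.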

[2] = system: S. aureus Newman
Summary of the method: as §1

[3] = system: B. subtilis 168
Summary of the method: as §1

[4] = system: S. pneumoniae D39V
Summary of the method: as §1

CCCCCCCCCC(=O)N[C@@H](Cc1c[nH]c2ccccc12)C(=O)N[C@H](CC(N)=O)C(=O)N[C@@H](CC(=O)O)C(=O)N[C@@H]1C(=O)NCC(=O)N[C@@H](CCCN)C(=O)N[C@@H](CC(=O)O)C(=O)N[C@H](C)C(=O)N[C@@H](CC(=O)O)C(=O)NCC(=O)N[C@H](CO)C(=O)N[C@@H]([C@H](C)CC(=O)O)C(=O)N[C@@H](CC(=O)c2ccccc2N)C(=O)O[C@@H]1C [Daptomycin] + N[C@@H]1CONC1=O [Cycloserine D]
fitness
Details | first compound 0.125 µg/mL | first compound 0.25 µg/mL | first compound 0.5 µg/mL | first compound 1 µg/mL | first compound 2 µg/mL
[1], partner 0.375 µg/mL | – | – | 0.964 | ≥ 1 | ≥ 1
[1], partner 0.75 µg/mL | – | – | 0.996 | 0.983 | 0.978
[1], partner 1.5 µg/mL | – | – | ≥ 1 | ≥ 1 | ≥ 1
[2], partner 0.375 µg/mL | 0.979 | 0.983 | 0.983 | – | –
[2], partner 0.75 µg/mL | 0.996 | 0.999 | ≥ 1 | – | –
[2], partner 1.5 µg/mL | ≥ 1 | ≥ 1 | 0.993 | – | –
[3], partner 0.125 µg/mL | 0.962 | 0.978 | 0.945 | – | –
[3], partner 0.25 µg/mL | 0.903 | 0.923 | 0.886 | – | –
[3], partner 0.5 µg/mL | 0.921 | 0.989 | 0.874 | – | –

[3], first compound 1 µg/mL, one replicate
Details | fitness
partner 0.125 µg/mL | 0.784
partner 0.25 µg/mL | 0.758
partner 0.5 µg/mL | 0.737

C[C@H]1COc2c(N3CCN(C)CC3)c(F)cc3c(=O)c(C(=O)O)cn1c23 [Levofloxacin] + CC1=C(C(=O)O)N2C(=O)[C@@H](NC(=O)[C@H](N)c3ccccc3)[C@H]2SC1 [Cephalexin]
Details | fitness
[3], first compound 0.0312 µg/mL, partner 0.125 µg/mL | 0.0416
[3], first compound 0.0312 µg/mL, partner 0.25 µg/mL | 0.0347
[3], first compound 0.0312 µg/mL, partner 0.5 µg/mL | 0.036
[3], first compound 0.0625 µg/mL, partner 0.125 µg/mL | 0.0518
[3], first compound 0.0625 µg/mL, partner 0.25 µg/mL | 0.037
[3], first compound 0.0625 µg/mL, partner 0.5 µg/mL | 0.043
[3], first compound 0.125 µg/mL, partner 0.125 µg/mL | 0.0423
[3], first compound 0.125 µg/mL, partner 0.25 µg/mL | 0.0386
[3], first compound 0.125 µg/mL, partner 0.5 µg/mL | 0.0448
[4], first compound 0.1725 µg/mL, partner 2 µg/mL | 0.176
[4], first compound 0.1725 µg/mL, partner 4 µg/mL | 0.0529
[4], first compound 0.345 µg/mL, partner 2 µg/mL | 0.103
[4], first compound 0.345 µg/mL, partner 4 µg/mL | 0.001
[4], first compound 0.69 µg/mL, partner 1 µg/mL | 0.235
[4], first compound 0.69 µg/mL, partner 2 µg/mL | 0.0462
[4], first compound 0.69 µg/mL, partner 4 µg/mL | 0.022

fitness, one replicate
Details | first compound 0.001 µg/mL | first compound 0.002 µg/mL | first compound 0.0039 µg/mL | first compound 0.2 µg/mL | first compound 0.4 µg/mL | first compound 0.8 µg/mL
[3], partner 0.25 µg/mL | 0.969 | 0.896 | 0.836 | – | – | –
[3], partner 0.5 µg/mL | 0.991 | 0.91 | 0.838 | – | – | –
[3], partner 1 µg/mL | 0.921 | 0.919 | 0.868 | – | – | –
[4], partner 0.125 µg/mL | – | – | – | 0.874 | 0.758 | 0.316
[4], partner 0.25 µg/mL | – | – | – | 0.91 | 0.782 | 0.354
[4], partner 0.5 µg/mL | – | – | – | 0.903 | 0.8 | 0.369

C[C@H]1COc2c(N3CCN(C)CC3)c(F)cc3c(=O)c(C(=O)O)cn1c23 [Levofloxacin] + CO[C@@]12[C@H](COC(N)=O)C3=C(C(=O)C(C)=C(N)C3=O)N1C[C@@H]1N[C@@H]12 [Mitomycin C]
fitness, [4]
Details | first compound 0.1725 µg/mL | first compound 0.2 µg/mL | first compound 0.345 µg/mL | first compound 0.4 µg/mL | first compound 0.69 µg/mL | first compound 0.8 µg/mL
partner 0.001075 µg/mL | – | 0.883 | – | 0.777 | – | 0.422
partner 0.002 µg/mL | 0.817 | – | 0.699 | – | 0.404 | –
partner 0.00215 µg/mL | – | 0.871 | – | 0.769 | – | 0.362
partner 0.004 µg/mL | 0.782 | – | 0.687 | – | 0.355 | –
partner 0.0043 µg/mL | – | 0.78 | – | 0.699 | – | 0.331
partner 0.008 µg/mL | 0.694 | – | 0.595 | – | 0.387 | –

CN(C)C(=O)C(CCN1CCC(O)(c2ccc(Cl)cc2)CC1)(c1ccccc1)c1ccccc1 [Loperamide] + CC(=O)NC[C@H]1CN(c2ccc(N3CCOCC3)c(F)c2)C(=O)O1 [Linezolid]
Details | fitness
[3], first compound 25 µg/mL, partner 0.125 µg/mL | 0.607
[3], first compound 25 µg/mL, partner 0.25 µg/mL | 0.066
[3], first compound 25 µg/mL, partner 0.5 µg/mL | 0.0361
[3], first compound 50 µg/mL, partner 0.25 µg/mL | 0.0362
[3], first compound 50 µg/mL, partner 0.5 µg/mL | 0.0318
[3], first compound 100 µg/mL, partner 0.125 µg/mL | 0.0357
[3], first compound 100 µg/mL, partner 0.25 µg/mL | 0.0269
[3], first compound 100 µg/mL, partner 0.5 µg/mL | 0.0353
[4], first compound 17.14 µg/mL, partner 0.2 µg/mL | 0.815
[4], first compound 17.14 µg/mL, partner 0.4 µg/mL | 0.709
[4], first compound 17.14 µg/mL, partner 0.8 µg/mL | 0.414
[4], first compound 20 µg/mL, partner 0.105 µg/mL | 0.938
[4], first compound 20 µg/mL, partner 0.21 µg/mL | 0.839
[4], first compound 20 µg/mL, partner 0.42 µg/mL | 0.652
[4], first compound 34.28 µg/mL, partner 0.2 µg/mL | 0.806
[4], first compound 34.28 µg/mL, partner 0.4 µg/mL | 0.701
[4], first compound 34.28 µg/mL, partner 0.8 µg/mL | 0.367
[4], first compound 40 µg/mL, partner 0.105 µg/mL | 0.947
[4], first compound 40 µg/mL, partner 0.21 µg/mL | 0.843
[4], first compound 40 µg/mL, partner 0.42 µg/mL | 0.58
[4], first compound 80 µg/mL, partner 0.42 µg/mL | 0.179

one replicate
Details | fitness
[3], first compound 25 µg/mL, partner 0.0625 µg/mL | 0.584
[3], first compound 50 µg/mL, partner 0.0625 µg/mL | 0.0437
[3], first compound 100 µg/mL, partner 0.0625 µg/mL | 0.0474
[4], first compound 68.57 µg/mL, partner 0.2 µg/mL | 0.91
[4], first compound 68.57 µg/mL, partner 0.4 µg/mL | 0.884
[4], first compound 68.57 µg/mL, partner 0.8 µg/mL | 0.532

CN(C)C(=O)C(CCN1CCC(O)(c2ccc(Cl)cc2)CC1)(c1ccccc1)c1ccccc1 [Loperamide] + CO[C@@]12[C@H](COC(N)=O)C3=C(C(=O)C(C)=C(N)C3=O)N1C[C@@H]1N[C@@H]12 [Mitomycin C]
[4]
Details | fitness
first compound 17.14 µg/mL, partner 0.002 µg/mL | 0.871
first compound 17.14 µg/mL, partner 0.004 µg/mL | 0.796
first compound 17.14 µg/mL, partner 0.008 µg/mL | 0.662
first compound 20 µg/mL, partner 0.001075 µg/mL | ≥ 1
first compound 20 µg/mL, partner 0.00215 µg/mL | ≥ 1
first compound 20 µg/mL, partner 0.0043 µg/mL | 0.926
first compound 34.28 µg/mL, partner 0.002 µg/mL | 0.843
first compound 34.28 µg/mL, partner 0.004 µg/mL | 0.8
first compound 34.28 µg/mL, partner 0.008 µg/mL | 0.616
first compound 40 µg/mL, partner 0.001075 µg/mL | ≥ 1
first compound 40 µg/mL, partner 0.00215 µg/mL | ≥ 1
first compound 40 µg/mL, partner 0.0043 µg/mL | 0.953
first compound 80 µg/mL, partner 0.001075 µg/mL | 0.804
first compound 80 µg/mL, partner 0.00215 µg/mL | 0.801

[4], first compound 68.57 µg/mL, one replicate
Details | fitness
partner 0.002 µg/mL | 0.814
partner 0.004 µg/mL | 0.712
partner 0.008 µg/mL | 0.672

Source: the supplement of paper PMC10627819
